Experimental data: patent publication US20110306606A1, “NOVEL 2,6-SUBSTITUTED-3-NITROPYRIDINE DERIVATIVE, METHOD FOR PREPARING SAME, AND PHARMACEUTICAL COMPOSITION INCLUDING SAME” (priority 2008, published 2011)

These molecules were tested on Osteoblasts (Calvarial cells) (assay: not given). Conditions: ICR, mouse, 72 h, 1 μM.

| Structure (SMILES) | Cell viability (%) Calvarial cell |
| --- | --- |
| CNc1ccc([N+](=O)[O-])c(Nc2ccc(C)cc2)n1 [Compound 1, 2-(4-methylphenylamino)-6-(methylamino)-3-nitropyridine] | 106% |
| Cc1ccc(Nc2nc(NC(C)C)ccc2[N+](=O)[O-])cc1 [Compound 2, 2-(4-methylphenylamino)-6-(isopropylamino)-3-nitropyridine] | 104% |
| Cc1ccc(Nc2nc(NCC(C)C)ccc2[N+](=O)[O-])cc1 [Compound 3, 2-(4-methylphenylamino)-6-(isobutylamino)-3-nitropyridine] | 102% |
| Cc1ccc(Nc2nc(N3CCC(O)CC3)ccc2[N+](=O)[O-])cc1 [Compound 5, 2-(4-methylphenylamino)-6-(4-hydroxypiperidino)-3-nitropyridine] | 96% |
| Cc1ccc(Nc2nc(N3CCN(C)CC3)ccc2[N+](=O)[O-])cc1 [Compound 11, 2-(4-methylphenylamino)-6-(4-methylpiperazin-1-yl)-3-nitropyridine] | 103% |

Each molecule was assayed on Osteoblasts (Calvarial cells) (assay: Cytotoxicity test (MTT)). Conditions: 1 μM compound, 72 hours, in comparison with vehicle control.

| Structure (SMILES) | Cell viability (%) Calvarial cell |
| --- | --- |
| CC(C)Nc1ccc([N+](=O)[O-])c(Nc2ccc(N3CCC(C(=O)O)CC3)c(F)c2)n1 [Compound 317, 2-{[3-fluoro-4-(4-carboxylicpiperidino)]phenylamino}-6-(isopropylamino)-3-nitropyridine] | 99% |
| CC(C)CNc1ccc([N+](=O)[O-])c(Nc2ccc(N3CCC(C(=O)O)CC3)c(F)c2)n1 [Compound 318, 2-{[3-fluoro-4-(4-carboxylicpiperidino)]phenylamino}-6-(isobutylamino)-3-nitropyridine] | 103% |
| O=C(O)C1CCN(c2ccc(Nc3nc(N4CCC(O)CC4)ccc3[N+](=O)[O-])cc2F)CC1 [Compound 319, 2-{[3-fluoro-4-(4-carboxylicpiperidino)]phenylamino}-6-(4-hydroxypiperidino)-3-nitropyridine] | 112% |
| CN1CCN(c2ccc([N+](=O)[O-])c(Nc3ccc(N4CCC(C(=O)O)CC4)c(F)c3)n2)CC1 [Compound 320, 2-{[3-fluoro-4-(4-carboxylicpiperidino)]phenylamino}-6-(4-methylpiperazin-1-yl)-3-nitropyridine] | 101% |
| O=C(O)C1CCN(c2ccc(Nc3nc(NCc4cccnc4)ccc3[N+](=O)[O-])cc2F)CC1 [Compound 321, 2-{[3-fluoro-4-(4-carboxylicpiperidino)]phenylamino}-6-[(3-pyridyl)methylamino]-3-nitropyridine] | 101% |
| O=C(O)C1CCN(c2ccc(Nc3nc(NCc4ccncc4)ccc3[N+](=O)[O-])cc2F)CC1 [Compound 322, 2-{[3-fluoro-4-(4-carboxylicpiperidino)]phenylamino}-6-[(4-pyridyl)methylamino]-3-nitropyridine] | 106% |
| O=C(O)C1CCN(c2ccc(Nc3nc(NCCCn4ccnc4)ccc3[N+](=O)[O-])cc2F)CC1 [Compound 323, 2-{[3-fluoro-4-(4-carboxylicpiperidino)]phenylamino}-6-[(3-imidazol-1-yl)propylamino]-3-nitropyridine] | 105% |
| O=C(O)C1CCN(c2ccc(Nc3nc(NCCN4CCOCC4)ccc3[N+](=O)[O-])cc2F)CC1 [Compound 324, 2-{[3-fluoro-4-(4-carboxylicpiperidino)]phenylamino}-6-[2-(morpholin-1-yl)ethylamino]-3-nitropyridine] | 82% |
| O=C(O)C1CCN(c2ccc(Nc3nc(NCCCN4CCOCC4)ccc3[N+](=O)[O-])cc2F)CC1 [Compound 325, 2-{[3-fluoro-4-(4-carboxylicpiperidino)]phenylamino}-6-[(3-morpholin-1-yl)propylamino]-3-nitropyridine] | 106% |
